Experiments:
[1] = test system: photothrombosis-induced stroke in mice; test: Mouse photothrombotic stroke model; assay type: in vivo
Protocol: Photothrombosis-induced Stroke: Photothrombosis is performed as described in Zheng et al 2010 (PloS One 5 (12): e14401). In brief, Rose Bengal is a fluorescent dye that when injected into the vasculature and excited, generates singlet oxygen that damages the endothelial wall and induces a local thrombosis (clot). Using this technique, mice are given a 0.1 mL tail-vein injection of sterilized Rose Bengal (RB, Sigma, U.S.A.) in artificial cerebral spinal fluid (aCSF). The RB concentration is 20 mg/mL. A cortical region is centered in the imaging field and illuminated with a green laser (543 nm, 5 mW) using a 0.8-NA 40× water-immersion objective (Nikon, Tokyo). The clot formation is monitored in real time until the targeted vessel or downstream capillaries are firmly occluded. Stable clots are subsequently identified by a non-fluorescent vessel segmentation ending with highly fluorescent regions. […] Treatments, at doses such as 0.5 μmol/kg are introduced via intraperitoneal injections (i.p.). For experiments with A3 receptor antagonist MRS1523, mice are administered intraperitoneal injections (2 mg/kg) at the 0 and 2 hour timepoints to ensure receptor antagonism throughout the course of the study.
Animals and Photothrombosis-induced Stroke: Stroke is performed as described in Zheng et al 2010 (PloS One 5 (12): e14401). Female C57Bl/6 mice (4-6 months) are used in this study. From the methods of this manuscript: Mice are anesthetized at 3% isoflurane with 100% oxygen and subsequently maintained at 1% isoflurane through a nosecone. Depth of anesthesia is monitored and regulated according to vital signs, pinch withdrawal and eye blinks. Body temperature is maintained at 37° C. by a feedback-controlled heating pad (Gaymar T/Pump). Vital signs including oxygen saturation, respiratory rate, and heart rate are continuously monitored by using the MouseOx system (STARR Life Sciences). […]
Post photothrombotic infarction evaluation. The size of cerebral infarcts is evaluated using 2,3,5-Triphenyltetrazolium chloride (TTC) staining as described in Zheng et al 2010 (PloS One 5 (12): e14401). […]

[2] = test system: traumatic brain injury (TBI) in mice; test: Mouse traumatic brain injury (TBI) model; assay type: in vivo
Protocol: Animals and traumatic brain injury (TBI): TBI is performed with a controlled closed skull injury model as described in Talley-Watts et al. 2012 (J. Neurotrauma 30, 55-66). Following the method described therein, a pneumatic impact device is used to generate a moderate TBI leaving the skull and dura matter intact. To achieve this, C57BL/6 mice are anesthetized with isoflurane (3% induction, 1% maintenance) in 100% oxygen. A body temperature of 37° C. is maintained using a temperature-controlled heated surgical table. A small midline incision is made on the scalp using aseptic surgical techniques. A 5 mm stainless steel disc is positioned on the skull and fixed using superglue on the right parietal bone between bregma and lamda over the somatosensory cortex. The mouse is then positioned on a stage directly under the pneumatic impact tip. […] Mice are placed in a Thermo-Intensive Care Unit (Braintree Scientific model FV-1; 37° C.; 27% O2) and monitored until fully awake and moving freely. […]
Western Blot Analysis for GFAP: At selected survival times, mice are anesthetized under isoflurane and sacrificed. […] The homogenate is transferred to a 2 mL tube and centrifuged at 1000 g for 10 minutes at 4° C. and the supernatant is collected and analyzed. Protein concentration is determined by the BCA assay using a 1:50 dilution. […]

CSc1nc(N)c2ncn([C@H]3[C@H](O)[C@H](O)[C@]4(CO)C[C@H]34)c2n1 [Compound I-1, (1R,2R,3S,4R,5S)-4-(6-Amino-2-(methylthio)-9H-purin-9-yl)-1-(hydroxymethyl)bicyclo[3.1.0]hexane-2,3-diol]
efficacy of I-1 in presence of A3 antagonist MRS1523 ([1]; mouse photothrombotic stroke and TBI models, with MRS1523): blocked | efficacy in mouse photothrombotic stroke model ([1]; mouse, stroke): significant efficacy | efficacy in mouse TBI model [2]: significant efficacy

Source: patent publication US20240368164A1, “PURINE NUCLEOSIDES, THEIR INTERMEDIATES, AND METHODS OF PREPARATION THEREOF” (Astrocyle Pharmaceuticals, Inc., priority 2021, published 2024)
